Reference: US11643670B2, “Methods of enhancing chromosomal homologous recombination” (Massachusetts Institute of Technology, priority 2018, dated 2023)

What was measured:
maternal Chd2 locus = assay: Donor-free interchromosomal homologous recombination (ICHR) in IVF-derived Chd2^R1684H/+ embryos; format: cell-based, mouse
Method: tracrRNA, crRNAs, and ssODNs were synthesized by Integrated DNA Technologies (TABLE 1). All injection mixtures were prepared in a final volume of 50 μL according to the following methodology: Using RNase-free water, reagents, and consumables, crRNA (final concentration 0.61 μM), tracrRNA (final concentration 0.61 μM), and ultrapure Tris-HCl, pH 7.39 (final concentration 10 mM, ThermoFisher) were mixed and incubated at 95° C. for 5 minutes. The mixtures were cooled to room temperature for 10 minutes on the benchtop, and then, EnGen Cas9-NLS S. pyogenes (New England Biolabs) was added to a final concentration of 30 ng/μL. The mixtures were incubated at 37° C. for 15 minutes before adding any remaining components: ssODN (final concentration 3 ng/μL or 30 ng/μL), RAD51 (Creative Biomart, final concentration 10 ng/μL). Injection mixtures were stored on ice and briefly heated to 37° C. prior to injection. For experiments utilizing RS-1, embryos were cultured in KSOM-AA (EMD Millipore MR-121-D) with […] RS-1 (Sigma) dissolved in DMSO or DMSO (Sigma, 1:1000) for 24 hours, washed, and cultured in EmbryoMax FHM HEPES Buffered Medium (Sigma) until collection for genotyping.
For experiments using wildtype recombinant proteins, the following proteins were used: RAD51 (Creative Biomart RAD51-134H), USP1/WDR48 (Creative Biomart USP1&WDR48-1067H), BCCIP (Origene TP303061), XRCC1 (TP304952), XRCC4 (Origene TP312684), DMC1 (Origene TP318311). For experiments using mutant RAD51, custom RAD51 preparations were produced by Creative Biomart according to their standard protocol for producing the wildtype RAD51 used in all other experiments. Mutant DNA sequences used for cloning are described in TABLE 2. All RAD51 mutants were modeled in human RAD51 transcript variant 4 (NCBI accession NM_001164269), as this is the transcript variant of the wildtype RAD51-134H protein used in all other experiments.
In vitro fertilization was performed using FERTIUP® Mouse Preincubation Medium and CARD MEDIA (Kyudo Company) according to the manufacturer's protocol. Non-virgin Chd2^R1684H/R1684H males that were >8 weeks old were used as sperm donors. Following IVF, embryos were cultured for 8 hours and then injected using the PNI protocol described below.
For all experiments except those described in FIG. 6, the male pronucleus was injected. Injections performed for the CPI portion of FIG. 6 were targeted to the cytoplasm. All microinjections were performed using a Narishige Micromanipulator, Nikon Eclipse TE2000-S microscope, and Eppendorf 5242 microinjector. Individual zygotes were injected with 1-2 pL of injection mixture using an “automatic” injection mode set according to needle size and adjusted for clear increase in pronuclear volume. Following injections, cells were cultured in KSOM-AA until collection for genotyping. For experiments giving rise to F0 animals, embryos were surgically implanted into pseudopregnant CD-1 females (Charles River Laboratories, Strain Code 022) 24-hours post-injection and allowed to develop normally until natural birth.
Embryos were collected at morula-to-blastocyst stage in 4 μL nuclease-free water. After collection, 4 μL of 2× embryo digestion buffer was added to each sample (final concentrations: 125 μg/mL proteinase K, 100 mM Tris-HCl pH 8.0, 100 mM KCl, 0.02% gelatin, 0.45% Tween-20, 60 μg/mL yeast tRNA) and embryos were lysed for 1 hour at 56° C. Proteinase K was inactivated via incubation at 95° C. for 10 minutes and DNA was stored at −20° C. until use.
Chd2^R1684H genotyping was performed via a two-step, nested approach. Except for experiments described in FIGS. 3A-3G, all 8 μL of embryo DNA were used as input for the initial, long round of PCR. Genotyping of mouse pups and adult animals was performed using 2 μL of purified tail DNA. For all embryo genotyping, reactions mixtures were set up in a UV-sterilized laminar flow hood using sterile reagents and filter tips to avoid contamination. […]

Cas9 = molecular target: T1, Cas9 (Streptococcus pyogenes serotype M1, UniProt Q99ZW2); assay: In vitro Cas9 digestion assay; format: biochemical, S. pyogenes; conditions: 10 ng/μL protein co-incubated, PCR amplimer of the Chd2^R1684H locus, 37° C. 1 hour
T1 construct: NLS (nuclear localization signal); purchased New England Biolabs
Method: Wildtype or Chd2^R1684H/R1684H genomic DNA was used as input for PCR using the conditions described above and the primers specified in FIGS. 10A-10D and FIG. 12. After confirmation of a single band via gel electrophoresis, the PCR reactions were purified using the DNA Clean & Concentrator kit (Zymo) according to the manufacturer's instructions. crRNA and tracrRNA were diluted 1 μM in nuclease-free Duplex Buffer (IDT) and incubated at 95° C. for 5 minutes before being allowed to cool to room temperature on the bench. Digestion mixtures were made in separate tubes by combining nuclease-free water, 10× Cas9 Nuclease Reaction Buffer (final concentration 1×, New England Biolabs), 1 μL of the cooled crRNA/tracrRNA duplex, and, if necessary, 1 μL of EnGen Cas9 NLS, S. pyogenes (New England Biolabs). These mixtures were heated to 37° C. for 10 minutes before adding 250 ng PCR product and, if necessary, RAD51 G151D (10 ng/μL final concentration, custom-produced by Creative Biomart) or BCCIP (10 ng/μL final concentration, Origene TP303061). Digestion was performed at 37° C. for 1 hour, Cas9 was denatured at 95° C., 6× Purple Gel Loading Dye (New England Biolabs) was added to a final concentration of 1×, and the samples were allowed to passively cool to room temperature. […]

[1] = co-injected with Cas9/crRNA/tracrRNA, no donor
[2] = compared to embryos injected with wildtype RAD51

T1 sequence (Q99ZW2 whole entry): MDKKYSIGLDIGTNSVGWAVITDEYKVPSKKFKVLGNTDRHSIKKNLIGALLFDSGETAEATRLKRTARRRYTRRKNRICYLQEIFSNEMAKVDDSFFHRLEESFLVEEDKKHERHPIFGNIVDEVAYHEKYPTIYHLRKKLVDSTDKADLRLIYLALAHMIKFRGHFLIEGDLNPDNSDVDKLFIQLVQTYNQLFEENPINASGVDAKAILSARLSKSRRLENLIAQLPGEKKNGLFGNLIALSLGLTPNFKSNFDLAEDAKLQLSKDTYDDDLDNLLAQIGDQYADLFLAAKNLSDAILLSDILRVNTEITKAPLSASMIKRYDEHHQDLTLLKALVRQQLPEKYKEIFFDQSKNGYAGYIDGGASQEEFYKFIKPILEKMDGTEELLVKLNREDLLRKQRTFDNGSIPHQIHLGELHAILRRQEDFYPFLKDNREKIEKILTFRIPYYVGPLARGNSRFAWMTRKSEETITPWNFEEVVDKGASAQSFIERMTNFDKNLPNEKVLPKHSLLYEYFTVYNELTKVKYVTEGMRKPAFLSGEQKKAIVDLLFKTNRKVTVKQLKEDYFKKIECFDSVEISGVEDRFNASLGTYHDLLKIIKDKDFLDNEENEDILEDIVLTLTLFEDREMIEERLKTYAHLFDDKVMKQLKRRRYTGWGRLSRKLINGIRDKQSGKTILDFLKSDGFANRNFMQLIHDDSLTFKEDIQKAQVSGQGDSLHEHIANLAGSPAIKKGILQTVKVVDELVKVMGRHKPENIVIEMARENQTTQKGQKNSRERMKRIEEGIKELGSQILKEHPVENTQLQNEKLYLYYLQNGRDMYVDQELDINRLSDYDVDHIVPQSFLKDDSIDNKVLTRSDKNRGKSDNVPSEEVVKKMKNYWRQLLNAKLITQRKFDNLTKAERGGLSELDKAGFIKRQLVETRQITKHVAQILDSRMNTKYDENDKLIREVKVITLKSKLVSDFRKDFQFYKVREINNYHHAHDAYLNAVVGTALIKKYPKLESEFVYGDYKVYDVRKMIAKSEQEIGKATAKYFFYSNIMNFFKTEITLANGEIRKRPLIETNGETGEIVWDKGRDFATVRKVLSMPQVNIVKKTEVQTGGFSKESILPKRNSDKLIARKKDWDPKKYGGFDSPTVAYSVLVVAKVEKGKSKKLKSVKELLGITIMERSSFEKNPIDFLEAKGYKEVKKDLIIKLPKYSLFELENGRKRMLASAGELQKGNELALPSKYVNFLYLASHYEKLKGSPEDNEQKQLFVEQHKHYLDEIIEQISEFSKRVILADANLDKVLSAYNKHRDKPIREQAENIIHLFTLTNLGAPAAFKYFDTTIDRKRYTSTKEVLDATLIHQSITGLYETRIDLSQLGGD

| Substance | efficiency of ICHR stimulation (maternal Chd2 locus) | embryos with mosaic ICHR that were mosaic with an indel (maternal Chd2 locus) | indel-to-ICHR ratio (level) (maternal Chd2 locus) | ICHR rate compared with baseline (Cas9-only embryos) (maternal Chd2 locus; [1]) | edited embryos showing ICHR (maternal Chd2 locus; [1]) | indel-to-ICHR ratio (maternal Chd2 locus; compared to control embryos) | overall indel rate (maternal Chd2 locus; compared to control embryos) | indel-to-ICHR ratio (maternal Chd2 locus; [2]) | overall indel rate (maternal Chd2 locus; [2]) | effect on mosaicism in embryos exhibiting ICHR (maternal Chd2 locus; compared to enhancer-free embryos) | direct inhibition of Cas9 nuclease activity (Cas9) |
| --- | --- | --- | --- | --- | --- | --- | --- | --- | --- | --- | --- |
| BCCIP: recombinant BRCA2-interacting protein BCCIP (Origene TP303061) | ~100% | 1/14 | near zero | significantly stronger effect on ICHR rates than USP1/WDR48 | 95% | drastic decrease | drastic decrease | significant decreases | significant decreases | strong effect on mosaicism | not due to direct inhibition of Cas9 activity |
| G151D: recombinant RAD51 gain-of-function mutant with increased strand exchange activity, SEQ ID NO: 8 |  |  |  |  |  |  |  |  |  |  | did not observe any direct inhibition of Cas9 activity |
